Source: US6737383B1, “Herbicidal oxadiazolidines” (priority 1999, dated 2004)

How the values were obtained:
giant foxtail = test: Test B pre/postemergence giant foxtail; assay type: in vivo, Setaria faberii
In short: (§1)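 Herbicidal effect was estimated by eye on a ten-point control scale after plants spent twelve to sixteen days in a greenhouse following soil or foliar treatment. Foliar sprays targeted plants at one to four leaves; all doses were formulated in a non-phytotoxic solvent with surfactant.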

bamyardgrass = test: Test B flood test barnyardgrass; assay type: in vivo, Echinochloa crus-galli
In short: (§2)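 Read-out is a visual response score from 0 (no effect) to 10 (complete control), assigned by comparison with untreated controls. Treatment was applied at the 2-leaf stage, and plants stayed in the greenhouse for twelve to sixteen days before scoring.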

purple nutsedge = test: Test B pre/postemergence purple nutsedge; assay type: in vivo, Cyperus rotundus
In short: as §1

cocklebur = test: Test B pre/postemergence cocklebur; assay type: in vivo, Xanthium strumarium
In short: as §1

crabgrass = test: Test B pre/postemergence crabgrass; assay type: in vivo, Digitaria sanguinalis
In short: as §1

morningglory = test: Test B pre/postemergence morningglory; assay type: in vivo, Ipomoea hederacea
In short: as §1

blackgrass = test: Test B pre/postemergence blackgrass; assay type: in vivo, Alopecurus myosuroides
In short: as §1

rice = test: Test B flood test rice; assay type: in vivo, Oryza sativa
In short: as §2

surinam grass = test: Test B pre/postemergence surinam grass; assay type: in vivo, Brachiaria decumbens
In short: as §1

soybean = test: Test B pre/postemergence soybean; assay type: in vivo, Glycine max
In short: as §1

rape = test: Test B pre/postemergence rape; assay type: in vivo, Brassica napus
In short: as §1

sugar beet = test: Test B pre/postemergence sugar beet; assay type: in vivo, Beta vulgaris
In short: as §1

smallflower flatsedge = test: Test B flood test smallflower flatsedge; assay type: in vivo, Cyperus difformis
In short: as §2

pigweed = test: Test B pre/postemergence pigweed; assay type: in vivo, Amaranthus retroflexus
In short: as §1

corn = test: Test B pre/postemergence corn; assay type: in vivo, Zea mays
In short: as §1

wild oat = test: Test B pre/postemergence wild oat; assay type: in vivo, Avena fatua
In short: as §1

duck salad = test: Test B flood test duck salad; assay type: in vivo, Heteranthera limosa
In short: as §2

wheat = test: Test B pre/postemergence wheat; assay type: in vivo, Triticum aestivum
In short: as §1

velvetleaf = test: Test B pre/postemergence velvetleaf; assay type: in vivo, Abutilon theophrasti
In short: as §1

[1] = Postemergence, Rate 62 g/ha, scale of 0 to 10, 0 is no effect, 10 is complete control
[2] = Postemergence, Rate 125 g/ha, scale of 0 to 10 where 0 is no effect and 10 is complete control
[3] = Postemergence, Rate 250 g/ha, scale of 0 to 10, 0 is no effect, 10 is complete control
[4] = Postemergence, Rate 500 g/ha, scale of 0 to 10 where 0 is no effect and 10 is complete control
[5] = Preemergence, Rate 62 g/ha, scale 0 to 10 (0 no effect, 10 complete control)
[6] = Preemergence, Rate 125 g/ha, scale of 0 to 10 where 0 is no effect and 10 is complete control
[7] = Preemergence, Rate 500 g/ha, scale of 0 to 10 where 0 is no effect and 10 is complete control
[8] = Rate 62 g/ha, flood test species, Pre-emergence, visual evaluation after twelve to sixteen days
[9] = Rate 125 g/ha, under heading Pre-emergence, flood test species, visual evaluation after twelve to sixteen days
[10] = Rate 500 g/ha, Pre-emergence section of Table B, 0 to 10 scale (0 no effect, 10 complete control)

In the case of `CCc1nc(C)c(C(C)n2c(=O)on(C(=O)N(c3ccc(F)cc3F)C(C)C)c2=O)s1` (stereo not shown) [Compound 589], the “Giant foxtail plant response rating” value (giant foxtail; [1]) is reported as 0, the “Plant response rating, Giant foxtail” value (giant foxtail; [2]) is reported as 0 and the “Giant foxtail plant response rating” value (giant foxtail; [3]) is reported as 0. For the same compound, the “Plant response rating, Giant foxtail” value (giant foxtail; [4]) was 3, the “Giant foxtail plant response rating” value (giant foxtail; [5]) was 3 and the “Giant foxtail plant response rating” value (giant foxtail; [6]) was 9. The “Giant foxtail plant response rating” value (giant foxtail; [7]) was 10, the “Plant response rating, Barnyardgrass (0 to 10 scale, 0 is no effect, 10 is complete control)” value (bamyardgrass; [8]) was 0 and the “Barnyardgrass plant response rating (0 to 10 scale, 0 is no effect, 10 is complete control)” value (bamyardgrass; [9]) was 0. For the same compound, the “Barnyardgrass plant response rating” value (bamyardgrass; [10]) was 0, the “Nutsedge plant response rating” value (purple nutsedge; [1]) was 0 and the “Plant response rating, Nutsedge” value (purple nutsedge; [2]) was 0. For the same compound, the “Nutsedge plant response rating” value (purple nutsedge; [5]) was 0, the “Nutsedge plant response rating” value (purple nutsedge; [6]) was 0 and the “Nutsedge plant response rating” value (purple nutsedge; [7]) was 9. The “Cocklebur plant response rating” value (cocklebur; [1]) was 0, the “Plant response rating, Cocklebur” value (cocklebur; [2]) was 0 and the “Cocklebur plant response rating” value (cocklebur; [3]) was 0. The “Plant response rating, Cocklebur” value (cocklebur; [4]) was 0, the “Cocklebur plant response rating” value (cocklebur; [5]) was 0 and the “Cocklebur plant response rating” value (cocklebur; [6]) was 0. The “Cocklebur plant response rating (0 to 10 scale)” value (cocklebur; Preemergence, Rate 250 g/ha) was 0, the “Cocklebur plant response rating” value (cocklebur; [7]) was 0 and the “Crabgrass plant response rating” value (crabgrass; [1]) was 0. The “Plant response rating, Crabgrass” value (crabgrass; [2]) was 0, the “Crabgrass plant response rating” value (crabgrass; [3]) was 1 and the “Plant response rating, Crabgrass” value (crabgrass; [4]) was 3. For the same compound, the “Crabgrass plant response rating” value (crabgrass; [5]) was 0, the “Crabgrass plant response rating” value (crabgrass; [6]) was 1 and the “Crabgrass plant response rating” value (crabgrass; [7]) was 9. For the same compound, the “Morningglory plant response rating” value (morningglory; [1]) was 3, the “Plant response rating, Morningglory” value (morningglory; [2]) was 3 and the “Morningglory plant response rating” value (morningglory; [3]) was 5. For the same compound, the “Plant response rating, Morningglory” value (morningglory; [4]) was 6, the “Morningglory plant response rating” value (morningglory; [5]) was 0 and the “Morningglory plant response rating” value (morningglory; [6]) was 0. The “Morningglory plant response rating” value (morningglory; [7]) was 0, the “Blackgrass plant response rating” value (blackgrass; [1]) was 0 and the “Plant response rating, Blackgrass” value (blackgrass; [2]) was 0. The “Blackgrass plant response rating” value (blackgrass; [3]) was 2, the “Plant response rating, Blackgrass” value (blackgrass; [4]) was 3 and the “Blackgrass plant response rating” value (blackgrass; [5]) was 0. The “Blackgrass plant response rating” value (blackgrass; [6]) was 0, the “Blackgrass plant response rating (0 to 10 scale)” value (blackgrass; Preemergence, Rate 250 g/ha) was 0 and the “Blackgrass plant response rating” value (blackgrass; [7]) was 0. The “Plant response rating, Rice (0 to 10 scale, 0 is no effect, 10 is complete control)” value (rice; [8]) was 0, the “Rice plant response rating (0 to 10 scale, 0 is no effect, 10 is complete control)” value (rice; [9]) was 0 and the “Rice plant response rating” value (rice; [10]) was 0. For the same compound, the “B. signalgrass plant response rating” value (surinam grass; [1]) was 0, the “Plant response rating, B. signalgrass” value (surinam grass; [2]) was 0 and the “B. signalgrass plant response rating” value (surinam grass; [3]) was 0. The “Plant response rating, B. signalgrass” value (surinam grass; [4]) was 3, the “B. signalgrass plant response rating” value (surinam grass; [5]) was 0 and the “B. signalgrass plant response rating” value (surinam grass; [6]) was 0. For the same compound, the “B. signalgrass plant response rating (0 to 10 scale, 0 is no effect, 10 is complete control)” value (surinam grass; Preemergence, Rate 250 g/ha) was 0, the “B. signalgrass plant response rating” value (surinam grass; [7]) was 0 and the “Plant response rating, Soybean” value (soybean; [2]) was 3. For the same compound, the “Soybean plant response rating” value (soybean; [3]) was 3, the “Plant response rating, Soybean” value (soybean; [4]) was 3 and the “Soybean plant response rating” value (soybean; [5]) was 0. For the same compound, the “Soybean plant response rating” value (soybean; [6]) was 0, the “Soybean plant response rating” value (soybean; [7]) was 0 and the “Rape plant response rating” value (rape; [1]) was 0. For the same compound, the “Plant response rating, Rape” value (rape; [2]) was 0, the “Rape plant response rating” value (rape; [3]) was 0 and the “Plant response rating, Rape” value (rape; [4]) was 2. The “Rape plant response rating” value (rape; [5]) was 0, the “Rape plant response rating” value (rape; [6]) was 0 and the “Rape plant response rating” value (rape; [7]) was 0. For the same compound, the “Plant response rating, Sugarbeets” value (sugar beet; [2]) was 0, the “Sugarbeets plant response rating” value (sugar beet; [3]) was 0 and the “Plant response rating, Sugarbeets” value (sugar beet; [4]) was 0. For the same compound, the “Sugarbeets plant response rating” value (sugar beet; [5]) was 0, the “Sugarbeets plant response rating” value (sugar beet; [6]) was 0 and the “Sugarbeets plant response rating” value (sugar beet; [7]) was 0. For the same compound, the “Plant response rating, S. Flatsedge (0 to 10 scale, 0 is no effect, 10 is complete control)” value (smallflower flatsedge; [8]) was 0, the “S. Flatsedge plant response rating (0 to 10 scale, 0 is no effect, 10 is complete control)” value (smallflower flatsedge; [9]) was 0 and the “S. Flatsedge plant response rating” value (smallflower flatsedge; [10]) was 0. For the same compound, the “Plant response rating, Redroot pigweed” value (pigweed; [2]) was 0, the “Redroot pigweed plant response rating” value (pigweed; [3]) was 2 and the “Plant response rating, Redroot pigweed” value (pigweed; [4]) was 2. For the same compound, the “Redroot pigweed plant response rating” value (pigweed; [5]) was 0, the “Redroot pigweed plant response rating” value (pigweed; [6]) was 0 and the “Redroot pigweed plant response rating” value (pigweed; [7]) was 0. For the same compound, the “Corn plant response rating” value (corn; [1]) was 0, the “Plant response rating, Corn” value (corn; [2]) was 0 and the “Corn plant response rating” value (corn; [3]) was 0. The “Plant response rating, Corn” value (corn; [4]) was 0, the “Corn plant response rating” value (corn; [5]) was 0 and the “Corn plant response rating” value (corn; [6]) was 0. For the same compound, the “Corn plant response rating (0 to 10 scale)” value (corn; Preemergence, Rate 250 g/ha) was 0, the “Corn plant response rating” value (corn; [7]) was 0 and the “Plant response rating, Wild oats” value (wild oat; [2]) was 0. The “Wild oats plant response rating” value (wild oat; [3]) was 0, the “Wild oats plant response rating” value (wild oat; [5]) was 0 and the “Wild oats plant response rating” value (wild oat; [6]) was 0. For the same compound, the “Wild oats plant response rating” value (wild oat; [7]) was 0, the “Plant response rating, Ducksalad (0 to 10 scale, 0 is no effect, 10 is complete control)” value (duck salad; [8]) was 0 and the “Ducksalad plant response rating (0 to 10 scale, 0 is no effect, 10 is complete control)” value (duck salad; [9]) was 0. The “Ducksalad plant response rating” value (duck salad; [10]) was 0, the “Plant response rating, Wheat” value (wheat; [2]) was 0 and the “Wheat plant response rating” value (wheat; [3]) was 0. For the same compound, the “Plant response rating, Wheat” value (wheat; [4]) was 0, the “Wheat plant response rating” value (wheat; [5]) was 0 and the “Wheat plant response rating” value (wheat; [6]) was 0. The “Wheat plant response rating” value (wheat; [7]) was 0, the “Plant response rating, Velvetleaf” value (velvetleaf; [2]) was 2 and the “Velvetleaf plant response rating” value (velvetleaf; [3]) was 5. The “Plant response rating, Velvetleaf” value (velvetleaf; [4]) was 5, the “Velvetleaf plant response rating” value (velvetleaf; [5]) was 0 and the “Velvetleaf plant response rating” value (velvetleaf; [6]) was 0. For the same compound, the “Velvetleaf plant response rating” value (velvetleaf; [7]) was 0.
